Patent publication US8834858B2, “Treatment for dyslipidemia” (Solvotrin Therapeutics Ltd., priority 2011, dated 2014)
“Also recorded” adds a separate entry of the source. Where two headings read alike, the source gives them in different places.

Columns and labels:
[1] = Hydrolysis of ST0702 in 50% human plasma; type: in vitro ADME; details: 50% human plasma diluted with pH 7.4 buffer, 37° C.
Protocol: FIG. 1 depicts a progress curve for the disappearance of isosorbide-2-aspirinate-5-nicotinate (ST0702) following incubation (in vitro) in 50% human plasma diluted with pH 7.4 buffer at 37° C.
A Waters Spherisorb® (4 μm) C18 3.9×250 mm column was used for the plasma and enzyme study samples. The enzyme and plasma study samples were analysed using a gradient method employing a mobile phase consisting of pH 3.19 phosphate buffer:acetonitrile 90:10 grading to 10:90 over the first ten minutes then back to 65:35 to 12 minutes and grading to 90:10 to 17 minutes at which it was held to 30 minutes. The eluent in both methods was monitored at 230 nm and peak identity and homogeneity confirmed by PDA analysis. Quantitation was performed by comparison of peak areas with external standards run under the same conditions at about the same concentration. The flow rate was 1 ml/min.
For the hydrolysis experiments pooled plasma or serum solutions (4 ml) were prepared by centrifugation of citrated human venous blood and dilution with pH 7.4 phosphate buffer as appropriate. Whole blood was used undiluted. […] 20 μl aliquots of the supernatant were analysed by HPLC. Hydrolysis was monitored until consumption of the parent ester. […] Cholinesterase activity of plasma, serum and whole blood was evaluated using the Ellman approach with butyryl thiocholine as substrate. […]

[2] = Incubation with pig intestinal S9 fraction; type: in vitro ADME
Protocol: FIG. 2 depicts a progress curve for the disappearance of ST0702 following incubation with pig intestinal S9 fraction.
(§1) Hydrolysis kinetics of isosorbide diaspirinate,” Eur. J. Pharm. Sciences 16 2002 297-304.

[3] = Incubation with rat intestinal preparation; type: in vitro ADME
[4] = Incubation with rabbit intestinal preparation; type: in vitro ADME
[5] = Incubation with mouse intestinal preparation; type: in vitro ADME
[6] = Incubation in diluted human intestinal contents; type: in vitro ADME; details: prolonged period
Description: as §1

[7] = Incubation in human gastric juice; type: in vitro ADME; details: over 60 minutes
Description: as §1

[8] = pH 7.4
Protocol: Microsomes from human hepatocytes (post mortem tissue) were diluted with pH 7.4 buffer and the suspension warmed to 37° C. ST0702 was introduced and samples withdrawn at successive time intervals.
Hydrolysis kinetics of isosorbide diaspirinate,” Eur. J. Pharm.

[9] = Incubation with microsomes from the human intestinal wall; type: in vitro ADME
Protocol: FIG. 7 depicts a progress curve following incubation of ST0702 in the presence of microsomes from the human intestinal wall.
as §1

[10] = Stomach irritation on administration of compound I; type: in vivo; details: statement in description; test not named
Protocol: Therefore, stomach irritation is not observed with the administration of isosorbide-2-acetylsalicylate-5-nicotinic acid (I). […] In some embodiments, the present invention provides a composition comprising isosorbide-2-acetylsalicylate-5-nicotinic acid (I) wherein the composition protects the gastrointestinal mucosa from irritation and inflammation.
Ulcerogenic effects of aspirin and aspirin pro-drugs ST0701, ST0702, and ST0703 were determined in rabbits using the following procedure. Healthy female rabbits (n=2 per group) were dosed (by oral gavage) for 3 consecutive days with 30 mg/kg of aspirin or the molar equivalent of ST0702 and the other pro drugs. Four hours post-dose on the final day, the rabbits were euthanized using an overdose of pentobarbitone and their stomachs and small intestine removed, washed with physiological saline, opened along the greater curvature and examined. The area (square millimeters) of both non-haemorrhagic and haemorrhagic lesions developed in the stomach/intestines were measured with a square grid under a dissecting microscope.

thromboxane B2 (TxB2) = test: NHP crossover study: ex-vivo serum TxB2; type: in vivo, cynomolgus monkeys
Protocol: (§2) For TxB2, an additional 0.4 mL whole blood aliquots were placed in siliconised glass tubes to induce a clotting response and the supernatants were analysed for TxB2 using a Luminex ELISA immunoassay. PGD2 was analysed from serum directly using a Luminex ELISA immunoassay.

prostaglandin D2 (PGD2) = test: NHP crossover study: serum PGD2; type: in vivo, cynomolgus monkeys; details: for PGD2 AUC: over 24 hours post dosing, equimolar doses
Protocol: as §2

serum glucose = test: NHP crossover study: serum glucose; details: for serum glucose change from baseline: 1 hour post dose
Protocol: (§3) The primary study endpoint is change in plasma LDL cholesterol and Apolipoprotein B at 48 hours. An aliquot of 300 μL of serum transferred to a cryovial and was immediately placed in a freezer set to maintain −70° C. until analyzed for clinical chemistry (LDL cholesterol, Apolipoprotein B, TGs, glucose) using a standard Roche Analyser.

[11] = tested on: LDL cholesterol, Apolipoprotein B, TGs; test: NHP crossover study: clinical chemistry (LDL-C, ApoB, TG); details: for increase in TG levels (non-significant) / reduction from baseline in LDL cholesterol / reduction from baseline in apolipoprotein B: baseline to 48 hours; for reduction from baseline in LDL cholesterol / reduction from baseline in apolipoprotein B: 28 mg/kg niacin equivalents daily oral gavage, n=6
Protocol: as §3

[12] = tested on: LDL cholesterol, HDL cholesterol, TG; details: adult dyslipidemias; cited from earlier work
[13] = cited from earlier work
[14] = crystalline nicotinic acid (>1 g), cited from earlier work
LDL, HDL = details: cited from earlier work
[15] = cited from earlier work; remark: listed apart in the source
[16] = 8 and 14 months, on statin therapy; cited from earlier work
[17] = secondary prevention; cited from earlier work
[18] = cited from earlier work; remark: listed apart in the source
blood glucose = details: cited from earlier work; for patients with diabetes requiring a change in hypoglycemic therapy: in vivo
PGD2 receptor-1 (DP1) = PGD2 receptor-1 (DP1) (Homo sapiens, UniProt Q13258); details: nicotinic acid without vs with added laropiprant (Kush 2009); cited from earlier work
Chain of PGD2 receptor-1 (DP1) (Q13258 whole entry): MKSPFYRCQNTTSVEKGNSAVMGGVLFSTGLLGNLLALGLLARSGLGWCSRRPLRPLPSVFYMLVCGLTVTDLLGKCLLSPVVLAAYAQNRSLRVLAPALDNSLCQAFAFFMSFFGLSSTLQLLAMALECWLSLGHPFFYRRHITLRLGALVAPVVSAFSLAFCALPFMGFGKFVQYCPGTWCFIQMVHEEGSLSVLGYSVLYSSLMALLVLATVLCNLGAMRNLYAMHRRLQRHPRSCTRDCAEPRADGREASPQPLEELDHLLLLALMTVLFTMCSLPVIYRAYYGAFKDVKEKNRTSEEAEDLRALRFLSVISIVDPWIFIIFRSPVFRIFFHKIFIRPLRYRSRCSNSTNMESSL

## CC(=O)Oc1ccccc1C(=O)O[C@H]1CO[C@H]2[C@@H]1OC[C@H]2OC(=O)c1cccnc1 [ST0702, isosorbide-2-aspirinate-5-nicotinate]
[1]
  disappearance of ST0702 / conversion to hydrolysis products: rapid conversion to a series of hydrolysis products
[2]
  aspirin production from ST0702: do not produce aspirin
[3]
  aspirin production from ST0702: do not produce aspirin
[4]
  aspirin production from ST0702: do not produce aspirin
[5]
  aspirin production from ST0702: do not produce aspirin
[6]
  stability in human intestinal contents: effectively unchanged
[7]
  metabolism in human gastric juice: not metabolized
[8]
  hydrolysis pattern in human liver microsomes: more significant direct hydrolysis at position 5 leading to direct nicotinic acid production
[9]
  hydrolysis pattern in human intestinal wall microsomes: hydrolysis predominantly at the isosorbide-2-position liberating aspirin and isosorbide-5-nicotinate
[10]
  stomach irritation: not observed
Thromboxane B2 (TxB2); at 24 and 48 hours
  serum TxB2 suppression: > 95%
Thromboxane B2 (TxB2); from 15 minutes on, within group and vs niacin
  serum TxB2 levels: significantly reduced
Prostaglandin D2 (PGD2); over 24 hours
  reduction in PGD2 AUC levels compared to nicotinic acid: 8 fold
Prostaglandin D2 (PGD2)
  PGD2 AUC: 16.2 ± 6.4 ng·h/mL
Serum glucose
  serum glucose change from baseline: significant decrease
Serum glucose; 4 hours post dose
  plasma glucose versus baseline: remained below baseline levels; also recorded: significant reduction
[11]
  TG levels at 48 hours (follow up): 55 ± 24 mg/dL
  TG levels at baseline: 59 ± 29 mg/dL
  increase in TG levels (non-significant): 4.4%
  reduction from baseline in LDL cholesterol: 53%
  reduction from baseline in apolipoprotein B: 42%

## O=C(O)c1cccnc1 [nicotinic acid]
Prostaglandin D2 (PGD2)
  PGD2 AUC: 128.3 ± 38.2 ng·h/mL
[12]
  HDL cholesterol: +15 to +35%
  LDL cholesterol: −5 to −25%
  TG: −20 to −50%
[13]; five year follow up, men with history of MI
  reduction of incidence of non-fatal re-infarction / risk of myocardial infarction: 27%
[13]; mean follow-up of 15 years
  decrease in all-cause (long-term) mortality: 11%
[14]; oral
  half life: about 60 minutes
  time to peak plasma concentrations: 30 to 60 min
[14]
  oral absorption: almost completely absorbed
LDL, HDL; 1 g/day added to stable statin
  additional lowering of LDL levels: 8%
  additional raise of HDL levels: 24%
LDL, HDL; 2 g/day added to stable statin
  additional lowering of LDL: 20%
  additional raise of HDL cholesterol levels: 27%
[15]; 1,000 mg once daily added to simvastatin
  HDL increase: 21%
[15]; after 12 months
  carotid intima-media thickness (CIMT): unchanged
[16]
  CIMT: significant reduction
[17]
  coronary artery revascularization, non-fatal MI, stroke and TIA: significant reduction
[18]; Jacobson 2010
  patients discontinuing treatment because of flushing: 5-20%
[18]; review of clinical trials
  users experiencing mild or moderate flushing: > 60%
Blood glucose; doses <2.5 g
  increase in fingerstick glucose levels: 4% to 5
Blood glucose
  patients with diabetes requiring a change in hypoglycemic therapy: 10-35%
Blood glucose; listed as Nicotinic acid
  patients with diabetes requiring a change in hypoglycemic therapy: 10% to 35
PGD2 receptor-1 (DP1)
  rate of moderate/severe flushing: 50%
Serum glucose
  serum glucose change from baseline: significant decrease
Serum glucose; following animal feeding between 1-2 hours post dose
  serum glucose after feeding: rebound to baseline levels
[11]
  TG levels at 48 hours (follow up): 64 ± 31 mg/dL
  TG levels at baseline: 50 ± 10 mg/dL
  increase in TG levels (non-significant): 23.3%
  reduction from baseline in LDL cholesterol: 33%
  reduction from baseline in apolipoprotein B: 24%
